Measured values as given in US11098038B2, “Imidazole-based anticancer agents and derivatives thereof, and methods of making and using same” (The University of Toledo, priority 2017, dated 2021).

Legend:
NCI/ADR-RES = test: NCI 60 screen, NCI/ADR-RES; assay type: cell-based; settings: Homo sapiens, Ovarian
Description: (§1) The compounds synthesized were tested at the National Cancer Institute (NCI) for anti-proliferative activity in the 60 human tumor cell line assay.

SK-MEL-5 = test: NCI 60 screen, SK-MEL-5; assay type: cell-based; settings: Homo sapiens, Melanoma
Description: as §1

SNB-19 = test: NCI 60 screen, SNB-19; assay type: cell-based; settings: Homo sapiens, CNS
Description: as §1

SF-268 = test: NCI 60 screen, SF-268; assay type: cell-based; settings: Homo sapiens, CNS
Description: as §1

K-562 = test: NCI 60 screen, K-562; assay type: cell-based; settings: Homo sapiens, K562, Leukemia
Description: as §1

HT29 = test: NCI 60 screen, HT29; assay type: cell-based; settings: Homo sapiens, HT-29, Colon
Description: as §1

HCT-116 = test: NCI 60 screen, HCT-116; assay type: cell-based; settings: Homo sapiens, Colon
Description: as §1

HCC-2998 = test: NCI 60 screen, HCC-2998; assay type: cell-based; settings: Homo sapiens, Colon
Description: as §1

SN12C = test: NCI 60 screen, SN12C; assay type: cell-based; settings: Homo sapiens, Renal
Description: as §1

COLO 205 = test: NCI 60 screen, COLO 205; assay type: cell-based; settings: Homo sapiens, Colon
Description: as §1

BT-549 = test: NCI 60 screen, BT-549; assay type: cell-based; settings: Homo sapiens, Breast
Description: as §1

MCF7 = test: NCI 60 screen, MCF7; assay type: cell-based; settings: Homo sapiens, Breast
Description: as §1

A549/ATCC = test: NCI 60 screen, A549/ATCC; assay type: cell-based; settings: Homo sapiens, Non-Small Cell Lung
Description: as §1

CAKI-1 = test: NCI 60 screen, CAKI-1; assay type: cell-based; settings: Homo sapiens, Renal
Description: as §1

MDA-MB-468 = test: NCI 60 screen, MDA-MB-468; assay type: cell-based; settings: Homo sapiens, Breast
Description: as §1

IGROV1 = test: NCI 60 screen, IGROV1; assay type: cell-based; settings: Homo sapiens, IGROV-1, Ovarian
Description: as §1

HOP-92 = test: NCI 60 screen, HOP-92; assay type: cell-based; settings: Homo sapiens, Non-Small Cell Lung
Description: as §1

UO-31 = test: NCI 60 screen, UO-31; assay type: cell-based; settings: Homo sapiens, Renal
Description: as §1

UACC-257 = test: NCI 60 screen, UACC-257; assay type: cell-based; settings: Homo sapiens, Melanoma
Description: as §1

OVCAR-4 = test: NCI 60 screen, OVCAR-4; assay type: cell-based; settings: Homo sapiens, Ovarian
Description: as §1

HL-60(TB) = test: NCI 60 screen, HL-60(TB); assay type: cell-based; settings: Homo sapiens, Leukemia
Description: as §1

SK-OV-3 = test: NCI 60 screen, SK-OV-3; assay type: cell-based; settings: Homo sapiens, Ovarian
Description: as §1

M14 = test: NCI 60 screen, M14; assay type: cell-based; settings: Homo sapiens, Melanoma
Description: as §1

SF-539 = test: NCI 60 screen, SF-539; assay type: cell-based; settings: Homo sapiens, CNS
Description: as §1

PC-3 = test: NCI 60 screen, PC-3; assay type: cell-based; settings: Homo sapiens, Prostatic
Description: as §1

A498 = test: NCI 60 screen, A498; assay type: cell-based; settings: Homo sapiens, Renal
Description: as §1

RPMI-8226 = test: NCI 60 screen, RPMI-8226; assay type: cell-based; settings: Homo sapiens, Leukemia
Description: as §1

NCI-322M = test: NCI 60 screen, NCI-322M; assay type: cell-based; settings: Homo sapiens, Non-Small Cell Lung
Description: as §1

SW-620 = test: NCI 60 screen, SW-620; assay type: cell-based; settings: Homo sapiens, Colon
Description: as §1

MDA-MB-435 = test: NCI 60 screen, MDA-MB-435; assay type: cell-based; settings: Homo sapiens, Melanoma
Description: as §1

NCI-H23 = test: NCI 60 screen, NCI-H23; assay type: cell-based; settings: Homo sapiens, Non-Small Cell Lung
Description: as §1

KM12 = test: NCI 60 screen, KM12; assay type: cell-based; settings: Homo sapiens, Colon
Description: as §1

CCRF-CEM = test: NCI 60 screen, CCRF-CEM; assay type: cell-based; settings: Homo sapiens, Leukemia
Description: as §1

NCI-H226 = test: NCI 60 screen, NCI-H226; assay type: cell-based; settings: Homo sapiens, Non-Small Cell Lung
Description: as §1

SK-MEL-2 [1] = test: NCI 60 screen, SK-MEL-2 (first line); assay type: cell-based; settings: Homo sapiens; Melanoma, SK-MEL-2 (first of two lines so named, r37)
Description: as §1

OVCAR-8 = test: NCI 60 screen, OVCAR-8; assay type: cell-based; settings: Homo sapiens, Ovarian
Description: as §1

HCT15 = test: NCI 60 screen, HCT15; assay type: cell-based; settings: Homo sapiens, HCT-15, Colon
Description: as §1

UACC-62 = test: NCI 60 screen, UACC-62; assay type: cell-based; settings: Homo sapiens, Melanoma
Description: as §1

MDA-MB-231/ATCC = test: NCI 60 screen, MDA-MB-231/ATCC; assay type: cell-based; settings: Homo sapiens, Breast
Description: as §1

SK-MEL-2 [2] = test: NCI 60 screen, SK-MEL-2 (second line); assay type: cell-based; settings: Homo sapiens; Melanoma, SK-MEL-2 (second of two lines so named, r38)
Description: as §1

NCI-460 = test: NCI 60 screen, NCI-460; assay type: cell-based; settings: Homo sapiens, Non-Small Cell Lung
Description: as §1

SNB-75 = test: NCI 60 screen, SNB-75; assay type: cell-based; settings: Homo sapiens, CNS
Description: as §1

SF-295 = test: NCI 60 screen, SF-295; assay type: cell-based; settings: Homo sapiens, CNS
Description: as §1

MOLT-4 = test: NCI 60 screen, MOLT-4; assay type: cell-based; settings: Homo sapiens, Leukemia
Description: as §1

DU-145 = test: NCI 60 screen, DU-145; assay type: cell-based; settings: Homo sapiens, Prostatic
Description: as §1

U251 = test: NCI 60 screen, U251; assay type: cell-based; settings: Homo sapiens, U-251, CNS
Description: as §1

MALME-3M = test: NCI 60 screen, MALME-3M; assay type: cell-based; settings: Homo sapiens, Melanoma
Description: as §1

SR = test: NCI 60 screen, SR; assay type: cell-based; settings: Homo sapiens, Leukemia
Description: as §1

LOX IMVI = test: NCI 60 screen, LOX IMVI; assay type: cell-based; settings: Homo sapiens, Melanoma
Description: as §1

OVCAR-3 = test: NCI 60 screen, OVCAR-3; assay type: cell-based; settings: Homo sapiens, Ovarian
Description: as §1

HS 578T = test: NCI 60 screen, HS 578T; assay type: cell-based; settings: Homo sapiens, Breast
Description: as §1

T-47D = test: NCI 60 screen, T-47D; assay type: cell-based; settings: Homo sapiens, T47D, Breast
Description: as §1

ACHN = test: NCI 60 screen, ACHN; assay type: cell-based; settings: Homo sapiens, Renal
Description: as §1

OVCAR-5 = test: NCI 60 screen, OVCAR-5; assay type: cell-based; settings: Homo sapiens, Ovarian
Description: as §1

TK-10 = test: NCI 60 screen, TK-10; assay type: cell-based; settings: Homo sapiens, Renal
Description: as §1

NCI-H522 = test: NCI 60 screen, NCI-H522; assay type: cell-based; settings: Homo sapiens, Non-Small Cell Lung
Description: as §1

EKVX = test: NCI 60 screen, EKVX; assay type: cell-based; settings: Homo sapiens, Non-Small Cell Lung
Description: as §1

RXF393 = test: NCI 60 screen, RXF393; assay type: cell-based; settings: Homo sapiens, RXF 393, Renal
Description: as §1

HOP-62 = test: NCI 60 screen, HOP-62; assay type: cell-based; settings: Homo sapiens, Non-Small Cell Lung
Description: as §1

786-0 = test: NCI 60 screen, 786-0; assay type: cell-based; settings: Homo sapiens, Renal
Description: as §1

With `Cn1ccnc1C(=O)/C=C/c1ccc(CC(=O)Nc2ccc(F)cc2)cc1` [Compound 28, (E)-N-(4-fluorophenyl)-2-(4-(3-(1-methyl-1H-imidazol-2-yl)-3-oxoprop-1-en-1-yl)phenyl)acetamide] the GI50 (NCI/ADR-RES) was 4.24 µM, the GI50 (SK-MEL-5) was 4.45 µM and the GI50 (SNB-19) was 2.74 µM. For the same molecule, the GI50 (SF-268) was 2.89 µM, the GI50 (K-562) was 0.82 µM and the GI50 (HT29) was 2.27 µM. For the same molecule, the GI50 (HCT-116) was 0.99 µM, the GI50 (HCC-2998) was 3.78 µM and the GI50 (SN12C) was 1.62 µM. The GI50 (COLO 205) was 4.39 µM, the GI50 (BT-549) was 1.32 µM and the GI50 (MCF7) was 1.04 µM. It also gave a GI50 (A549/ATCC) of 6.43 µM, a GI50 (CAKI-1) of 3.14 µM and a GI50 (MDA-MB-468) of 1.72 µM. The GI50 (IGROV1) was 2.93 µM, the GI50 (HOP-92) was 4.51 µM and the GI50 (UO-31) was 1.72 µM. For the same molecule, the GI50 (UACC-257) was 6.99 µM, the melting point was 213 °C and the GI50 (OVCAR-4) was 5.68 µM. For the same molecule, the GI50 (HL-60(TB)) was 1.6 µM, the GI50 (SK-OV-3) was 9.81 µM and the GI50 (M14) was 3.23 µM. For the same molecule, the GI50 (SF-539) was 3.59 µM, the GI50 (PC-3) was 1.99 µM and the GI50 (A498) was 5.56 µM. For the same molecule, the GI50 (RPMI-8226) was 1.02 µM, the GI50 (NCI-322M) was 2.07 µM and the GI50 (SW-620) was 1.97 µM. It also gave a GI50 (MDA-MB-435) of 4.25 µM, a GI50 (NCI-H23) of 3.04 µM and a GI50 (KM12) of 1.62 µM. For the same molecule, the GI50 (CCRF-CEM) was 2 µM, the GI50 (NCI-H226) was 8.57 µM and the GI50 (SK-MEL-2 [1]) was 7.01 µM. The GI50 (OVCAR-8) was 5.71 µM, the GI50 (HCT15) was 1.29 µM and the GI50 (UACC-62) was 3.51 µM. It also gave a GI50 (MDA-MB-231/ATCC) of 2.96 µM, a GI50 (SK-MEL-2 [2]) of 4.47 µM and a GI50 (NCI-460) of 1.8 µM. It also gave a GI50 (SNB-75) of 3.74 µM, a GI50 (SF-295) of 4.55 µM and a GI50 (MOLT-4) of 2.32 µM. For the same molecule, the GI50 (DU-145) was 1.24 µM, the GI50 (U251) was 1.4 µM and the GI50 (MALME-3M) was 5.28 µM. For the same molecule, the GI50 (SR) was 0.51 µM, the GI50 (LOX IMVI) was 0.71 µM and the GI50 (OVCAR-3) was 0.96 µM. For the same molecule, the GI50 (HS 578T) was 1.5 µM, the GI50 (T-47D) was 8.34 µM and the GI50 (ACHN) was 5.74 µM. The GI50 (OVCAR-5) was 4.36 µM, the GI50 (TK-10) was 10.5 µM and the GI50 (NCI-H522) was 3.34 µM. The GI50 (EKVX) was 5.5 µM, the GI50 (RXF393) was 3.89 µM and the GI50 (HOP-62) was 4.68 µM. The GI50 (786-0) was 1.37 µM.
